From patent US6358885B1, “Substituted phenylheterocyclic herbicides” (Mississippi State University, priority 1992, dated 2002)

What was measured:
[1] = tested on: blackgrass; assay: Test B preemergence/postemergence greenhouse plant response rating 0 to 10; type: in vivo, Alopecurus myosuroides; details: 0 to 10 scale
In short: (§1)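 Test chemicals, dissolved in a non-phytotoxic solvent, were applied to soil at planting and, at the same time, over foliage of seedlings at the one to four leaf stage.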

[2] = tested on: pigweed; assay: Test C preemergence/postemergence greenhouse plant response rating 0 to 100; type: in vivo, Amaranthusretroflexus; details: POSTEMERGENCE; for Plant response rating Pigweed: 0 to 100 scale
In short: (§2)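 Compounds in non-phytotoxic solvent went onto sandy loam before emergence (seeded one day earlier) or onto plants at the one-to-four leaf stage. Duck salad was treated via flood water (~2.5 cm, maintained) over silt loam.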

[3] = tested on: cotton; assay: as above; type: in vivo, Gossypium hirsutum; details: POSTEMERGENCE; for Plant response rating, Cotton: 0 to 100 scale
In short: as §2

[4] = tested on: ryegrass; assay: as above; type: in vivo, Lolium multiflorum; details: POSTEMERGENCE; for Plant response rating Ryegrass: 0 to 100 scale
In short: as §2

[5] = tested on: wild oat; assay: Test B preemergence/postemergence greenhouse plant response rating 0 to 10; type: in vivo, Avena fatua; details: 0 to 10 scale
In short: as §1

[6] = tested on: wheat; assay: Test C preemergence/postemergence greenhouse plant response rating 0 to 100; type: in vivo, Triticum aestivum; details: POSTEMERGENCE; for Plant response rating, Wheat: 0 to 100 scale
In short: as §2

[7] = tested on: cocklebur; assay: Test B preemergence/postemergence greenhouse plant response rating 0 to 10; type: in vivo, Xanthium pensylvanicum; details: 0 to 10 scale
In short: as §1

[8] = tested on: sugar beet; assay: as above; type: in vivo, Beta vulgaris; details: 0 to 10 scale
In short: as §1

[9] = tested on: barnyardgrass; assay: Test C flood test plant response rating 0 to 100; type: in vivo, Echinochloa crus-galli; details: for Plant response rating Barnyardgrass 2 / Plant response rating, Barnyardgrass: flood test species listed under POSTEMERGENCE, 0 to 100 scale
From the text: The compounds evaluated in this test were formulated in a non-phytoxic solvent and applied to the soil surface before plant seedlings emerged (preemergence application), to water that covered the soil surface (flood application), and to plants that were in the one-to-four leaf stage (postemergence application). A sandy loam soil was used for the preemergence and postemergence tests, while a silt loam soil was used in the flood test. Water depth was approximately 2.5 cm for the flood test and was maintained at this level for the duration of the test. Plant species in the preemergence and postemergence tests consisted of barley (Hordeum vulgare), bedstraw (Galium aparine), blackgrass (Alopecurus myosuroides), chickweed (Stellaria media), corn (Zea mays), cotton (Gossypium hirsutum), crabgrass (Digitaria sanguinalis), downy brome (Bromus tectorum), giant foxtail (Setaria faberii), lambsquarters (Chenopodium album), morningglory (Ipomoea hederacea), pigweed ([…]), rape (Brassica napus), ryegrass (Lolium multiflorum), sorghum (Sorghum bicolor), soybean (Glycine max), speedwell (Veronica persica), sugar beet (Beta vulgaris), velvetleaf (Abutilon theophrasti), wheat (Triticum aestivum), wild buckwheat (Polygonum convolvulus), and wild oat (Avena fatua). All plant species were planted one day before application of the compound for the preemergence portion-of this test. Plantings of these species were adjusted to produce plants of appropriate size for the post-emergence portion of the test. […] All plant species were grown using normal greenhouse practices. Visual evaluations of injury expressed on treated plants, when compared to untreated controls, were recorded approximately fourteen to twenty one days after application of the test compound. […] A dash (-) response means no test result.

[10] = tested on: blackgrass; assay: Test C preemergence/postemergence greenhouse plant response rating 0 to 100; type: in vivo, Alopecurus myosuroides; details: POSTEMERGENCE; for Plant response rating, Blackgrass: 0 to 100 scale
In short: as §2

[11] = tested on: bedstraw; assay: Test B preemergence/postemergence greenhouse plant response rating 0 to 10; type: in vivo, Galium aparine; details: 0 to 10 scale
In short: as §1

[12] = tested on: morningglory; assay: as above; type: in vivo, Ipomoea hederacea; details: 0 to 10 scale
In short: as §1

[13] = Rate 16 g/ha, under POSTEMERGENCE head (flood test species)

CCOC(=O)COc1cc(-c2nn3c(c2Cl)CCCC3)c(F)cc1Cl [Compound 42]
60: Plant response rating Barnyardgrass 2 ([9]; 125 g/ha)
90: Plant response rating Pigweed ([2]; 62 g/ha) | Plant response rating Pigweed ([2]; 125 g/ha) | Plant response rating (0 to 100), Pigweed ([2]; Rate 16 g/ha) | Plant response rating (0 to 100), Pigweed ([2]; Rate 31 g/ha)
30: Plant response rating Ryegrass ([4]; 62 g/ha) | Plant response rating, Wheat ([6]; 62 g/ha) | Plant response rating, Blackgrass ([10]; 62 g/ha) | Plant response rating, Blackgrass ([10]; 125 g/ha)
40: Plant response rating Ryegrass ([4]; 125 g/ha) | Plant response rating, Wheat ([6]; 125 g/ha) | Plant response rating Barnyardgrass 2 ([9]; 62 g/ha)
0: Plant response rating, Blackgrass ([1]; PREEMERGENCE, Rate 50 g/ha) | Plant response rating, Blackgrass ([1]; Rate 200 g/ha, PREEMERGENCE) | Plant response rating, Wild oat ([5]; PREEMERGENCE, Rate 50 g/ha) | Plant response rating, Cocklebur ([7]; PREEMERGENCE, Rate 50 g/ha) | Plant response rating, Cocklebur ([7]; Rate 200 g/ha, PREEMERGENCE) | Plant response rating (0 to 100), Barnyardgrass 2 [9, 13] | Plant response rating, Morningglory ([12]; PREEMERGENCE, Rate 50 g/ha)
7: Plant response rating, Bedstraw ([11]; PREEMERGENCE, Rate 50 g/ha)
3: Plant response rating, Blackgrass ([1]; POSTEMERGENCE, Rate 200 g/ha) | Plant response rating, Wild oat ([5]; Rate 200 g/ha, POSTEMERGENCE) | Plant response rating, Morningglory ([12]; Rate 200 g/ha, PREEMERGENCE)
10: Plant response rating (0 to 100), Ryegrass ([4]; Rate 16 g/ha) | Plant response rating (0 to 100), Wheat ([6]; Rate 16 g/ha) | Plant response rating, Cocklebur ([7]; POSTEMERGENCE, Rate 50 g/ha) | Plant response rating, Cocklebur ([7]; POSTEMERGENCE, Rate 200 g/ha) | Plant response rating, Sugar beet ([8]; POSTEMERGENCE, Rate 50 g/ha) | Plant response rating, Sugar beet ([8]; PREEMERGENCE, Rate 50 g/ha) | Plant response rating, Sugar beet ([8]; Rate 200 g/ha, POSTEMERGENCE) | Plant response rating, Sugar beet ([8]; Rate 200 g/ha, PREEMERGENCE) | Plant response rating (0 to 100), Blackgrass ([10]; Rate 16 g/ha) | Plant response rating, Bedstraw ([11]; POSTEMERGENCE, Rate 50 g/ha) | Plant response rating, Morningglory ([12]; Rate 200 g/ha, POSTEMERGENCE)
2: Plant response rating, Blackgrass ([1]; POSTEMERGENCE, Rate 50 g/ha)
20: Plant response rating (0 to 100), Ryegrass ([4]; Rate 31 g/ha) | Plant response rating (0 to 100), Wheat ([6]; Rate 31 g/ha) | Plant response rating (0 to 100), Barnyardgrass 2 ([9]; Rate 31 g/ha, under POSTEMERGENCE head (flood test species)) | Plant response rating (0 to 100), Blackgrass ([10]; Rate 31 g/ha)
100: Plant response rating, Cotton ([3]; 62 g/ha) | Plant response rating, Cotton ([3]; 125 g/ha) | Plant response rating (0 to 100), Cotton ([3]; Rate 16 g/ha) | Plant response rating (0 to 100), Cotton ([3]; Rate 31 g/ha)
9: Plant response rating, Bedstraw ([11]; POSTEMERGENCE, Rate 200 g/ha) | Plant response rating, Bedstraw ([11]; Rate 200 g/ha, PREEMERGENCE) | Plant response rating, Morningglory ([12]; POSTEMERGENCE, Rate 50 g/ha)
1: Plant response rating, Wild oat ([5]; POSTEMERGENCE, Rate 50 g/ha)

COC(=O)c1cc(-c2nn3c(c2Cl)CCCC3)c(F)cc1Cl [Compound 43]
85: Plant response rating Ryegrass ([4]; 250 g/ha)
2: Plant response rating, Blackgrass ([1]; PREEMERGENCE, Rate 50 g/ha) | Plant response rating, Wild oat ([5]; PREEMERGENCE, Rate 50 g/ha)
95: Plant response rating (0 to 100), Barnyardgrass [9, 13]
60: Plant response rating, Wheat ([6]; 250 g/ha) | Plant response rating, Blackgrass ([10]; 62 g/ha)
5: Plant response rating, Blackgrass ([1]; Rate 200 g/ha, PREEMERGENCE) | Plant response rating, Wild oat ([5]; POSTEMERGENCE, Rate 50 g/ha)
0: Plant response rating, Cocklebur ([7]; PREEMERGENCE, Rate 50 g/ha) | Plant response rating, Cocklebur ([7]; Rate 200 g/ha, PREEMERGENCE) | Plant response rating, Bedstraw ([11]; PREEMERGENCE, Rate 50 g/ha) | Plant response rating, Morningglory ([12]; PREEMERGENCE, Rate 50 g/ha) | Plant response rating, Morningglory ([12]; Rate 200 g/ha, PREEMERGENCE)
45: Plant response rating (0 to 100), Barnyardgrass ([9]; POSTEMERGENCE section, flood test, Rate 4 g/ha)
20: Plant response rating (0 to 100), Wheat ([6]; Rate 4 g/ha) | Plant response rating (0 to 100), Blackgrass ([10]; Rate 4 g/ha)
90: Plant response rating (0 to 100), Pigweed ([2]; Rate 4 g/ha) | Plant response rating (0 to 100), Cotton ([3]; Rate 4 g/ha) | Plant response rating (0 to 100), Cotton ([3]; Rate 16 g/ha) | Plant response rating, Blackgrass ([10]; 250 g/ha)
9: Plant response rating, Sugar beet ([8]; PREEMERGENCE, Rate 50 g/ha) | Plant response rating, Bedstraw ([11]; Rate 200 g/ha, PREEMERGENCE)
8: Plant response rating, Blackgrass ([1]; POSTEMERGENCE, Rate 200 g/ha) | Plant response rating, Cocklebur ([7]; POSTEMERGENCE, Rate 50 g/ha)
50: Plant response rating Ryegrass ([4]; 62 g/ha) | Plant response rating, Wheat ([6]; 62 g/ha)
100: Plant response rating Pigweed ([2]; 62 g/ha) | Plant response rating Pigweed ([2]; 250 g/ha) | Plant response rating (0 to 100), Pigweed ([2]; Rate 16 g/ha) | Plant response rating, Cotton ([3]; 62 g/ha) | Plant response rating, Cotton ([3]; 250 g/ha) | Plant response rating, Barnyardgrass ([9]; 62 g/ha) | Plant response rating, Barnyardgrass ([9]; 250 g/ha)
10: Plant response rating, Cocklebur ([7]; POSTEMERGENCE, Rate 200 g/ha) | Plant response rating, Sugar beet ([8]; POSTEMERGENCE, Rate 50 g/ha) | Plant response rating, Sugar beet ([8]; Rate 200 g/ha, POSTEMERGENCE) | Plant response rating, Sugar beet ([8]; Rate 200 g/ha, PREEMERGENCE) | Plant response rating, Bedstraw ([11]; POSTEMERGENCE, Rate 50 g/ha) | Plant response rating, Bedstraw ([11]; POSTEMERGENCE, Rate 200 g/ha) | Plant response rating, Morningglory ([12]; POSTEMERGENCE, Rate 50 g/ha) | Plant response rating, Morningglory ([12]; Rate 200 g/ha, POSTEMERGENCE)
40: Plant response rating (0 to 100), Ryegrass ([4]; Rate 16 g/ha) | Plant response rating (0 to 100), Wheat ([6]; Rate 16 g/ha)
30: Plant response rating (0 to 100), Ryegrass ([4]; Rate 4 g/ha) | Plant response rating (0 to 100), Blackgrass ([10]; Rate 16 g/ha)
7: Plant response rating, Blackgrass ([1]; POSTEMERGENCE, Rate 50 g/ha) | Plant response rating, Wild oat ([5]; Rate 200 g/ha, POSTEMERGENCE)
